Source: patent publication US8986701B2, “Enzyme prodrug cancer therapy selectively targeted to tumor vasculature and methods of production and use thereof” (The Board of Regents of the University of Oklahoma, priority 2003, dated 2015)

Experiments:
[1] = system: MDA-MB-231 breast cancer cells; assay: In vitro enzyme prodrug cytotoxicity (Alamar Blue), MDA-MB-231; type: cell-based, human; details: 500 μM L-methionine
Description: (§1) In Vitro Enyzme Prodrug Cytotoxicty to Cells: The experiment lasted 3 days, using the same cells for each of the days (day 0, 1, 2, and 3). Cells were grown and plated in 24-well plates with respective growth media using the same procedure as for the FP binding assay (see above). […] On day 0, a saturating concentration of FP was diluted in medium was added and incubated for 2 hours at 37° C. The plates were washed, and medium containing SeMet varying from 0 to 500 μM was added. The Alamar Blue assay was performed on all wells on day 0. […] The solution was transferred to an opaque 96-well plate, and the fluorescence was read at 590 nm using excitation at 530 nm. The blank consisted of wells containing only medium (no cells). After the fluorescence reading, the plates were washed, replaced with fresh medium, and then placed in incubator. The readings were taken every 24 hours for the duration of the experiment. […] The ability of the enzyme prodrug system to eliminate human endothelial cells and breast cancer cells was evaluated using cells grown in vitro and plated on 24-well plates. […] Each of the cell lines in question metabolized the Alamar Blue to produce a fluorescence that was measured to quantify total cell viability. For each day, the fluorescence data from the Alamar Blue assay was expressed as a percentage of the fluorescence for the cells with no FP and 0 μM SeMet (control). […]

[2] = system: MCF-7 breast cancer cells; assay: In vitro enzyme prodrug cytotoxicity (Alamar Blue), MCF-7; type: cell-based, human
Description: as §1

HAAE-1 endothelial cells [3] = assay: In vitro enzyme prodrug cytotoxicity (Alamar Blue), endothelial cells; type: cell-based, human; details: with saturating FP; 10 and 100 μM SeMet; days 2 and 3; 500 μM L-methionine
Description: as §1

MCF-7 cells = assay: Binding stability assay, MCF-7; type: cell-based, human
Description: (§2) Binding Stability Assay: To assess how long the FP remains bound to the surface of the endothelial cells, a modified binding assay was used. Cells on 24-well plates were first incubated for 2 hours at 37° C. in a saturating concentration of biotinylated FP (50 nM) in complete growth medium with 2 mM Ca^2+. Then, the cells were fixed either at day 0, 1, 2 or 3 with 0.25% glutaraldehyde in binding buffer. Excess aldehyde groups were quenched by incubation in a 50 mM NH4Cl in binding buffer. The binding of FP was then quantitated using the same procedure used in the FP binding assay (see above).
(§3) Binding Stability: To assess how long the FP remains bound to the surface of the endothelial cells, a modified binding assay was used. Cells on 24-well plates were first incubated for 2 hours at 37° C. in a saturating concentration of biotinylated FP (50 nM) in complete growth medium with 2 mM Ca^2+. […] The binding of FP was then quantified using the same procedure used in the equilibrium FP binding assay. […] For each cell line, the slope by linear regression of the absorbance/RFU versus time data was obtained, with results as follows: 3.07×10^−5 per day for the endothelial cells (HAAE-1), 4.63×10^−5 per day for the MCF-7 cells, and 5.38×10^−5 per day for the MDA-MB-231 cells. Thus, the rate of change of absorbance/RFU was the lowest for the endothelial cells.

[4] = L-methioninase enzyme activity with L-methionine as substrate; type: biochemical
Description: Protein Content and Enzymatic Activity Determination: The Bradford assay from Bio-Rad (Hercules, Calif.) was used for all protein determinations throughout the purification using bovine serum albumin (BSA) as the standard. Samples were analyzed by denaturing gel electrophoresis using the SDS-PAGE method with Coomassie blue staining (Laemmli, 1970).

MDA-MB-231 cells = assay: Binding stability assay, MDA-MB-231; type: cell-based, human
Description: as §2, §3

[5] = system: PS exposed on MDA-MB-231 breast cancer cells; assay: Fusion protein equilibrium binding assay, MDA-MB-231; design: species or system human; details: specific binding, biotin-labeled FP, no H2O2, read-out: dissociation constant (Kd)
Description: (§4) Fusion Protein Binding Assay: Endothelial cells were grown to 70-80% confluence in T-75 flasks. Cells were transferred to 24-well culture plates (5×10^4 cells/well) and grown to 80-85% confluence. Cells were fixed to the plate using 0.25% glutaraldehyde in binding buffer (PBS with 2 mM Ca^2+). Excess aldehyde groups were quenched using 50 mM NH4Cl in binding buffer. Varying concentrations of biotinylated FP were diluted in binding buffer containing 0.5% BSA and incubated at 37° C. for 2 hours. After washing with binding buffer with 0.5% BSA, streptavidin-HRP was added at 2 μg/ml and incubated at room temperature for 1 hour. Following washing with binding buffer, HRP was measured by adding the chromogenic substrate O-phenylenediamine (0.4 mg/ml) and hydrogen peroxide (0.012%) in phosphate-citrate buffer. After 30 minutes at room temperature in the dark, the solution was transferred to a transparent 96-well plate, and the absorbance was read at 450 nm on a microtiter plate reader. […] To determine non-specific binding, the same procedure was performed with no Ca^2+ and 5 mM EDTA in the binding buffer. […]
(§5) Binding of Fusion Protein: The ability of the Meth-AnnV FP to bind to human endothelial cells and breast cancer cells with PS exposed on the cell surface was evaluated by equilibrium binding experiments in which increasing concentrations of biotin-labeled FP were used. […]

[6] = system: PS exposed on MCF-7 breast cancer cells; assay: Fusion protein equilibrium binding assay, MCF-7; design: species or system human; details: specific binding, biotin-labeled FP, no H2O2, read-out: dissociation constant (Kd)
Description: as §4, §5

[7] = Storage stability of L-methioninase activity in lyophilized form; type: physicochemical; details: lyophilized form at −80° C.
HAAE-1 endothelial cells [8] = assay: Binding stability assay, endothelial cells; type: cell-based, human
Description: as §2, §3

[9] = system: PS exposed on HAAE-1 aorta endothelial cells; assay: Fusion protein equilibrium binding assay, endothelial cells; design: species or system human; details: specific binding (total minus non-specific without Ca2+), biotin-labeled FP, no H2O2, read-out: dissociation constant (Kd)
Description: as §4, §5

[10] = system: human brain tumor xenografts; details: cited from earlier work
[11] = L-methioninase from P. putida; Esaki and Soda 1987; cited from earlier work
endothelial cells = details: van Heerde et al., 1994a and b; read-out: Kd, literature values of annexin V binding alone to endothelial cells; cited from earlier work
[12] = period of the experiment 3 days
[13] = 50 nM biotinylated FP, days 0-3, 500 μM L-methionine

For `C[Se]CC[C@H](N)C(=O)O` [SeMet, selenomethionine], the “cell killing (cell viability, Alamar Blue) vs same SeMet without FP” value (shortened to “cell killing … vs same SeMet without FP”) ([1]; with saturating FP, 10 and 500 μM SeMet, days 1, 2 and 3) was “significant killing”, the “cell viability vs control, SeMet by itself” value ([2]; no FP, 500 μM SeMet, day 3, p<0.05) was “significantly lower” and the “cell killing … vs same SeMet without FP” value ([2]; with saturating FP, day 2 with 500 μM SeMet, day 3 with 100 and 500 μM SeMet, 2000 μM L-methionine) was “significant cell killing”. The “cell killing … vs same SeMet without FP” value (HAAE-1 endothelial cells [3]) was “Significant cell killing”.
For “FP: Fusion protein of Pseudomonas putida L-methioninase linked by a flexible linker to human annexin V, SEQ ID NO:2”, the “slope by linear regression of absorbance/RFU versus time” value (“slope … of absorbance/RFU versus time” for short) (MCF-7 cells; 50 nM biotinylated FP, days 0-3, 2000 μM L-methionine) was 4.63×10^−5 per day, the “duration FP stays bound to the cells” value (MCF-7 cells; [12]) was “at least 3 days” and the methioninase specific activity ([4]; lyophilized FP) was 1.0 U/mg of protein. The Specific activity ([4]; purification step: After lyophilized) was 1.04 U/mg, the “slope … of absorbance/RFU versus time” value (MDA-MB-231 cells; [13]) was 5.38×10^−5 per day and the “duration FP stays bound to the cells” value (MDA-MB-231 cells; [12]) was “at least 3 days”. The Kd [5] was 2.2 ± 1.2 nM, the Kd [6] was 1.9 ± 1.2 nM and the “cell viability when FP added, no SeMet present” value ([1]; no SeMet) was “significant decrease in cell viability”. The “L-methioninase activity on storage” value [7] was “remained relatively constant”, the “slope … of absorbance/RFU versus time” value (HAAE-1 endothelial cells [8]; [13]) was 3.07×10^−5 per day and the “duration FP stays bound to the cells” value (HAAE-1 endothelial cells [8]; [12]) was “at least 3 days”. It also gave a Kd [9] of 1.7 ± 0.6 nM.
For “L-methionine-α-deamino-γ-mercaptomethane-lyase [L-methioninase]”, the “tumor regression, share of animals” value ([10]; after a 10-day period, same combined treatment) is given as “one-third”, the “tumor stasis, share of treated animals” value ([10]; within four days, 44 mg/kg per day i.p. with homocystine and diet restricted in methionine, homocysteine, choline) is given as 100% and the “relative reactivity for DL-selenomethionine substrate versus L-methionine substrate” value [11] is given as 2.8 times.
For “annexin V: Ca2+-dependent anionic phospholipid binding protein; literature comparator for binding”, the Kd (endothelial cells) is given as 2.7 to 15.5 nM.
